# Tests used:
# [1] = test system: tumour cell lines of Table 1 (CCRF-CEM, K562, MCF7, PANC1, B16, HT168M1, HCT116, PC3); test: Proliferation assay (MTT) on tumour cell lines; type: cell-based, human; mouse (B16); conditions: 0.6, 2 and 6 μM, evaluated 24, 48 and 72 hours after treatment, One-Way ANOVA Post Hoc Scheffe Test, FIG. 4
# Protocol: The first step was to examine the effect of T0504-7238 on the growth of tumour cells of the cell lines listed below in Table I. Our aim was to select the most therapy-sensitive cell lines as a preparation for the in vivo experiments.
# Tumour cells were maintained in RPMI 1640 medium supplemented with 10% FBS (Sigma) and 1% penicillin/streptomycin solution (5,000 units penicillin and 5 mg streptomycin/ml) (Sigma) at 37° C. in a 5% CO2 atmosphere and used at confluence or at minimum 10^6 cells/ml density.
# Single cell suspensions of different cell lines (Table 1) were put into 96-well microtiter plates for setting up 18-24 parallel samples per experimental group at 4×10^3 cell/well. The appropriate amount of T0504-7238 was suspended in a 3:1 DMSO: Solutol solution, which was then further diluted to the final concentration without the risk of precipitation. […]
# Within each group samples were evaluated 24, 48 and 72 hours after treatment. […] After discarding of the culture medium plates were dried at room temperature, formazan crystals dissolved in dimethyl sulfoxide (100 μl/well) and the absorbance (OD) was measured at 570 nm using a microplate reader (Bio-Rad 550).
# (§1) The results of our measurements were evaluated using One-Way ANOVA Post Hoc Scheffe Test.
# HT168M1 human melanoma = test: HT168M1 human melanoma, subcutaneous implantation in CB17/scid mice; type: in vivo, CB17/scid female mice
# Description: (§2) Both the environment of the experimental animals and the execution of the actual experiments followed the up to date legislation and ethical regulations of Hungary. […] The experimental animals were derived from the The Jackson Laboratory (610 Main Street Bar Harbor, Me. 04609, USA). All personnel involved with the in vivo experiments are qualified to perform the described experiments.
# 2,5×10^5 human melanoma (HT168M1) cells, from the in vitro cell line, were subcutaneously (s.c.) implanted into the dorsal region of adult CB17/scid female mice with congenital immunodeficiency under diethyl ether narcosis. The animals were randomised, divided into two groups (11 treated, 11 control) and labelled with individual ear-markings on the 10th post-implantation day. From that day onwards, the treated group was intraperitoneally (i.p) treated with T0504-7238 (2 mg/kg-3:1 DMSO:Solutol solution) once every second day. The control group was also treated with identical frequency to the treatment group i.p. injecting appropriately diluted 3:1 DMSO:Solutol solution. The animals were weighed weekly and individual changes were recorded using the ear-marking system. The tumour diameter was also individually recorded from the earliest palpable stage using a pair of compasses (caliper). Tumour volume was estimated usin the π/6×a×b^2 formula, where ‘a’ is the longer and ‘b’ is the shorter diameter. The experiment was terminated on the 41st post-implantation day—the animals were sacrificed using Nembutal. The evaluation was based on the weight of the primary tumour.
# as §1
# [2] = test system: PC3 human prostate carcinoma; test: PC3 human prostate tumour, implantation into prostate of CB17/scid mice; type: in vivo, CB17/scid male mice; conditions: 2 mg/kg i.p. once every second day from 13th post-implantation day, evaluated on 31st day
# Description: as §2
# The abdominal wall of CB17/scid male mice was opened at the level of the prostate under Nembutal anaesthesia (75 mg/kg). A single cell suspension (2.15×10^5 cell/20 μl) of the PC3 human prostate carcinoma cell line was implanted into the prostate using micro syringe (Hamilton). The abdominal was closed with a single layer of surgical thread (3/0 Vicryl), the skin was closed with outwards turning wound edges using surgical clips (Michel Wound Clips, 7.5 mm). After the wound healing completed, the animals were randomised, divided into two groups (9 treated, 9 control) and labelled with individual ear-markings on the 13th post-implantation day. From that day onwards, the treated group was intraperitoneally (i.p) treated with T0504-7238 (2 mg/kg-3:1 DMSO:Solutol solution) once every second day. […] The animals were weighed weekly and individual changes were recorded using the ear-marking system. […]
# as §1
smiles,measurement,setting,value
O=C1C(Cl)=C(N2CCOCC2)C(=O)c2ccc(S(=O)(=O)N3CCOCC3)cc21 [T0504-7238],growth of all tumour cell lines,[1],"dose-dependently, significantly decreased the growth"
same,"detectable tumor entirely necrotic, share of cases in treated group","HT168M1 human melanoma; 2 mg/kg i.p. once every second day from 10th post-implantation day, evaluated on 41st day",20%
same,"weight of the tumor, treated vs control group","HT168M1 human melanoma; 2 mg/kg i.p. once every second day from 10th post-implantation day, evaluated on 41st day, FIG. 5",significantly lower (p=0.026)
same,average body weight of treated animals vs controls at the time of evaluation,"HT168M1 human melanoma; 2 mg/kg i.p. once every second day, 41st post-implantation day",this difference was not significant
same,"body weight, treated vs control animals at the time of evaluation",[2]; FIG. 6,no significant difference
same,"average weight of the primary tumour, treated vs control group",[2]; FIG. 7,lower in the treated group

# From patent US20160339036A1, “Compound with Anti-Cancer Properties” (Velgene 3 Limited, priority 2013, published 2016)
